In patent EP1036075B1, “SUBSTITUTED THIAZOLIDINEDIONE AND OXAZOLIDINEDIONE HAVING ANTIDIABETIC, HYPOLIPIDEMIA AND ANTIHYPERTENSIVE PROPERTIES” (Dr. Reddy's Laboratories Ltd., priority 1997, dated 1998):

Test system: C57BL/KsJ-db/db mice
Experiment: Blood sugar and triglycerides lowering activity in db/db mice, oral gavage daily for 6 days
Assay type: in vivo
Settings: male db/db mice; for Maximum reduction in blood glucose level (%) / Triglyceride lowering (%): oral gavage daily for 6 days
Description: Mutation in colonies of laboratory animals and different sensitivities to dietary regimens have made the development of animal models with non-insulin dependent diabetes associated with obesity and insulin resistance possible. Genetic models such as db/db and ob/ob (See Diabetes, (1982) 31(1) : 1- 6) in mice and fa/fa and zucker rats have been developed by the various laboratories for understanding the pathophysiology of disease and testing the efficacy of new antidiabetic compounds (Diabetes, (1983) 32: 830-838; Annu. Rep. Sankyo Res. Lab. (1994) 46 : 1-57). The homozygous animals, C57 BL/KsJ-db/db mice developed by Jackson Laboratory, US, are obese. hyperglycemic, hyperinsulinemic and insulin resistant (J. Clin. Invest., (1990) 85 : 962-967), whereas heterozygous are lean and normoglycemic. In db/db model, mouse progressively develops insulinopenia with age, a feature commonly observed in late stages of human type II diabetes when blood sugar levels are insufficiently controlled. The state of pancreas and its course vary according to the models. Since this model resembles that of type II diabetes mellitus, the compounds of the present invention were tested for blood sugar and triglycerides lowering activities.
Male C57BL/KsJ-db/db mice of 8 to 14 weeks age, having body weight range of 35 to 60 grams, procured from the Jackson Laboraotory, USA, were used in the experiment. The mice were provided with standard feed (National Institute of Nutrition, Hyderabad, India) and acidified water, ad libitum. The animals having more than 300 mg / dl blood sugar were used for testing. The number of animals in each group was 4.
The random blood sugar and triglyceride levels were measured by collecting blood (100 µl) through orbital sinus, using heparinised capillary in tubes containing EDTA which was centrifuged to obtain plasma. The plasma glucose and triglycerides levels were measured spectrometrically, by glucose oxidase and glycerol-3-PO4 oxidase/peroxidase enzyme (Dr. Reddy's Lab. Diagnostic Division Kits, Hyderabad, India) methods respectively. On 6th day the blood samples were collected one hour after administration of test compounds / vehicle for assessing the biological activity.
Test compounds were suspended on 0.25 % carboxymethyl cellulose and administered to test group at a dose of 1 mg to 100 mg / kg through oral gavage daily for 6 days. The control group received vehicle (dose 10 ml / kg).

SMILES: O=C1NC(=O)C(Cc2ccc(OCC3NC(=O)c4ccccc4O3)cc2)S1 (stereo not drawn) [Example 3, 5-[4-1[[4-Oxo-3,4-dihydro-(2H)-1,3-benzoxazine-2-yl]methoxy]phenylmethyl]thiazotidin-2,4-dione]
- Maximum reduction in blood glucose level (%) (dose 10 mg/kg/day): 41%
- Triglyceride lowering (%) (dose 10 mg/kg/day): 48%

SMILES: CN1C(=O)c2ccccc2OC1COc1ccc(CC2SC(=O)NC2=O)cc1 (stereo not drawn) [Example 4, 5-[4-[[3-Methyl-4-oxo-3,4-dihydro-(2H)-1,3-benzoxazine-2-yl]methoxy]phenylmethyl] thiazolidin-2,4-dione]
- Maximum reduction in blood glucose level (%) (dose 10 mg/kg/day): 48%
- Triglyceride lowering (%) (dose 10 mg/kg/day): 42%

SMILES: CN1C(=O)c2ccccc2N(C)C1COc1ccc(CC2SC(=O)NC2=O)cc1 (stereo not drawn) [Example 11, 5-[4-[[1,3-Dimethyl-4-oxo-1,2,3,4-tetrahydro-2-quinazolinyl]methoxy]phenylmethyl) thiazolidin-2,4-dione]
- Maximum reduction in blood glucose level (%) (dose 1 mg/kg/day): 34%
- Triglyceride lowering (%) (dose 1 mg/kg/day): 28%

SMILES: CN1C(=O)c2ccccc2NC1COc1ccc(CC2SC(=O)NC2=O)cc1 (stereo not drawn) [Example 12, 5-[4-[[3-Methyl-4-oxo-1,2,3,4-tetrahydro-2-quinazolinyl]methoxy]phenylmethyl] thiazolidin-2,4-dione]
- Maximum reduction in blood glucose level (%) (dose 3 mg/kg/day): 55%
- Triglyceride lowering (%) (dose 3 mg/kg/day): 35%

SMILES: Cc1c(C)c2c(c(C)c1O)CCC(C)(COc1ccc(CC3SC(=O)NC3=O)cc1)O2 (stereo not drawn) [Troglitazone, reference compound]
- reduction in random blood sugar level (100 mg / kg, daily dose, on 6th day): 28%
